# Where a SMILES comes first, the peptide text is derived from it. [ ]: non-standard residue; d: D form.
# Columns and labels:
# [1] = target: T1, recombinant BΔg protein (deglycosylated brevican) (Homo sapiens, UniProt Q96GW7); assay: Octet steady state binding affinity to recombinant BΔg; settings: steady state analysis, Octet RED, peptide up to 10 μM; read-out: KD (dissociation constant) to BΔg protein
# T1 construct: purchased R&D Systems 4009-BC-050
# T1 sequence (Q96GW7 23-911): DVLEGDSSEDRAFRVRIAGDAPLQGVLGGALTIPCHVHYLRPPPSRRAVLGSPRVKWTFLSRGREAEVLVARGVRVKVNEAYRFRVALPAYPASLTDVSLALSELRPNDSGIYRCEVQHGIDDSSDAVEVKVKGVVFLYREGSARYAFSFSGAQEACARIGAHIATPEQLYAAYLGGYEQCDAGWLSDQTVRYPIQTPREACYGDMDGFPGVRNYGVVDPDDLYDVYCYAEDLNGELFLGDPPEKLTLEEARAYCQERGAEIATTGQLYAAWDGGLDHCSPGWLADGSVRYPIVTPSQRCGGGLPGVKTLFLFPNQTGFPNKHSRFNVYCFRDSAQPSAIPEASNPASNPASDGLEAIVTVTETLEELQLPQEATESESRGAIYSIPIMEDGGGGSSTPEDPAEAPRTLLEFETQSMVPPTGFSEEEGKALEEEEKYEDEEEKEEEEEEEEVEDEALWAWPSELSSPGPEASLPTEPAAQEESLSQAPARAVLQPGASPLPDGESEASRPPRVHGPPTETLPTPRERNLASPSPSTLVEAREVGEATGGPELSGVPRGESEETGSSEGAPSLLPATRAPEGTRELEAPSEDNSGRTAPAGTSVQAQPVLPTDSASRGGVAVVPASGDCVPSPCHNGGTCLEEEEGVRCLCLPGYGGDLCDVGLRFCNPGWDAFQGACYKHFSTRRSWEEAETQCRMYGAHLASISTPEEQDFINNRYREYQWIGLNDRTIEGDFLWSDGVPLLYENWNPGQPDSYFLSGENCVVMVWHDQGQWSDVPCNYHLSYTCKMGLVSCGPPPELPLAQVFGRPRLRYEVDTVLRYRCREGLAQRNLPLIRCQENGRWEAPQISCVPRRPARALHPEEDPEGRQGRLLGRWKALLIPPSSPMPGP
# Protocol: A ForteBio OctetRed384 instrument was used to study the binding kinetics of each peptide to recombinant human brevican (re-suspended in PBS and 0.1 mM EDTA, pH 6.8). The brevican protein was deglycosylated prior to experimental use in water+0.05% tween, PI, sialidase, 0-glycosidase, N-glycosidase in sodium acetate [200 mM], NaCl [250 mM], Tris-HCl [200 mM], pH 7.5.) in the presence of protease inhibitor overnight at 4° C. (this entire composition will be referred to as ‘de-glycosylation buffer’). […] The final volume for all the solutions was 80 μl/well. Assays were performed at 30° C. in solid black 384-well plates (Geiger Bio-One). Prior to beginning, Ni-NTA biosensors were soaked for 10 min in working buffer. Before loading the protein onto each biosensor, a baseline was established in working buffer for 60 s. Deglycosylated brevican (50 μg/ml BΔg; His-tagged) was loaded on the surface of each biosensors for 180 s. […] Reference biosensors were also included in the plate as internal controls, where biosensors were exposed to the ‘de-glycosylation buffer’ lacking brevican protein during the loading step. A 60 s biosensor washing step was applied. Then, biosensors were exposed to the analyte (peptide) in working buffer (ranging between 0-10 μM BTP) for 300 s during the ‘association’ step. Finally, the biosensors were exposed to working buffer (without peptide) during the ‘dissociation’ step for 600 s. Binding affinity of each peptide was assessed through steady state analysis, where the response unit was plotted over peptide concentration. All data was plotted and curves were fitted using the non-linear ‘one-site specific binding’ fit, and the dissociation constant (KD) value was calculated using the GraphPad Prism software.
# Binding kinetics analyses were performed using the Octet RED platform (Forte Bio) to measure the binding affinity of BTP-7, 8 and 9 to purified recombinant BΔg protein.
# [2] = target: T2, BΔg-derived peptide (a.a. 535-548 of BΔg) (Homo sapiens, UniProt Q96GW7); assay: Circular dichroism of peptide mixed with BΔg-derived peptide; assay type: binding; settings: CD spectrometry, 50 μM each peptide
# T2 construct: purchased GenScript USA Inc; host or cells: chemical synthesis
# Protocol: (§1) The BΔg peptide (or control BΔg(Scramble) peptide), BTP-7-FITC peptide, or a mixture of both (dissolved in Milli-Q H2O to a final concentration of 50 μM for each peptide) was loaded into a quartz cuvette (1 mm pathlength; Hellma Analytics Catalog #110-1-40). The cuvette was inserted into the Jasco J-815 circular dichroism spectropolarimeter, and the spectral scan measurement was conducted using the Spectrum Manager 2 software. The cuvette was rinsed with Milli-Q H2O in between each run. A blank (water) was run to establish the baseline for all samples. Scans were measured from 190 nm to 260 nm in a continuous mode (50-100 nm/min) at 20° C. To measure the BTP-7 structural change in the presence of either the BΔg (or control scramble) peptide, spectrum of the BΔg (or scramble) peptide alone was subtracted from the spectrum of the mixture, and then overlaid with the spectrum of BTP-7 alone for comparison. To investigate the structural changes in BTP-7 in a dose-dependent manner, 50 μM of BTP-7 peptide was loaded together with varying concentrations of either the BΔg (or control scramble) peptide. Similarly, the spectrum of each BΔg (or control scramble) peptide at the concentration was subtracted from the spectrum of the corresponding mixture, and then overlaid with the spectrum of BTP-7 alone for comparison.
# [3] = tested on: BΔg-derived peptide (a.a. 535-548 of BΔg); assay: as above; assay type: binding, human; settings: CD spectrometry, control peptide
# Protocol: as §1
smiles,measurement,setting,value
CC[C@@H](C)[C@@H](NC(=O)[C@H](N)[C@H](C)O)C(=O)N[C@H](CCCNC(=N)N)C(=O)N[C@H](CCCCN)C(=O)N[C@H](CC(C)C)C(=O)N[C@@H](C(=O)N[C@H](CCCNC(=N)N)C(=O)N[C@H](Cc1c[nH]cn1)C(N)=O)C(C)C [BTP-8] (H-[dT][dI][dR][dK][dL][dV][dR][dH]-NH2; N-terminus and C-terminus assumed),Kd,[1],1570 nM
same,peptide conformation in the presence of the BΔg-derived peptide,[2],unaffected
same,peptide conformation in the presence of the scramble(BΔg) peptide,[3],unaffected
